Experimental data: patent US12496460B2, “System and method for quantitative dosimetry of photodynamic therapy in skin” (Trustees of Dartmouth College, priority 2020, dated 2025)

What was measured:
[1] = system: PpIX fluorescence at AK treatment sites; settings: human, in vivo
Experimental: Example 2—Human Skin Test Measurement: In this human testing, the system's 100 performance was evaluated on three patients undergoing their standard clinical PDT treatment at the Dartmouth-Hitchcock Dermatology Department for treatment of AKs using Levulan® (Sun Pharma Industries Ltd., Mumbai, India), a 20% ALA solution [see FIG. 2A]. […] The standard procedure involves treatment of a site (e.g. face, scalp, arms, or legs) which is cleaned using ethanol and followed by non-occluded topical application of the ALA; the patient is then transferred to a low-light rest area for a 60-minute incubation period. […] Fluorescence images from a treatment site are gathered before the ALA is applied, at the 60-minute incubation, and post-PDT treatment [see FIG. 2B]. Discomfort levels experienced by the imaged patients were recorded during light irradiation via verbal rating of the pain. The goal of performing dosimeter imaging using the system 100 during treatment is to correlate the measured PpIX accumulation and PDT-induced photobleaching to patient outcomes and generate thresholds that can be used for individualized treatment guidance [see FIG. 2C]. […] Images were pre-processed using Adobe DNG Converter software and analyzed using MATLAB and ImageJ to extract the RAW pixel values. […]

[2] = system: PpIX accumulation in athymic nude mice; settings: mouse, in vivo
Experimental: Example 1—Preclinical In-vivo Murine Measurements: The nude mouse model was used to examine the system's 100 ability to capture in-vivo production of PpIX. The measurements were performed on five athymic nude mice fed a low-chlorophyll diet to minimize tissue autofluorescence. For imaging, the mice were placed under anesthesia and onto a heated pad to regulate their body temperature; the temperature was monitored using an IR camera (TG165, FLIR Systems Inc.) and kept in the 32° C.-36° C. range. AMELUZ® (Biofontera Inc., Boston, MA), a 10% aminolevulinic acid hydrochloride gel, was topically applied to the backs of the mice as to contain an ALA-applied area and a control area within the field-of-view of the system 100. The mice were kept in a low-light environment to prevent photobleaching of the accumulated PpIX. Images of the mice were taken at 10-minute intervals for the first hour with subsequent images at two and three hours of incubation. The mice were kept under anesthesia during the first hour, placed back in the cage, and briefly placed back under anesthesia for imaging at two and three hours of incubation. The imaging parameters used for these measurements were iOS-generated images with ISO 400 and exposure set to 1/10th sec. The images were processed in ImageJ, where the red pixels were isolated for region-of-interest (ROI) pixel intensity calculation.
In this murine model, it was possible to quantitatively observe the PpIX accumulation in the ALA-applied area as early as 10 minutes with a clear visual accumulation in the 20-30 minute timeframe. In contrast, the control region was relatively flat for the first hour with a moderate increase in fluorescence observed at the two hour and three hour measurements as the mice begin systematic accumulation of the PpIX.

Structure (SMILES): NCC(=O)CCC(=O)O [ALA, aminolevulinic acid]
- average pixel value (PpIX fluorescence) at 60 min incubation [1]: 21.1±6.1
- time at which PpIX accumulation is quantitatively observed in the ALA-applied area ([2]; athymic nude): 10 min
- timeframe of clear visual PpIX accumulation ([2]; athymic nude): 20 to 30 min
- course of PpIX fluorescence over the three hours of incubation [2]: monotonic increase
